Test results reported in PMC6025150, “Synthesis, enzyme inhibitory kinetics mechanism and computational study of N-(4-methoxyphenethyl)-N-(substituted)-4-methylbenzenesulfonamides as novel therapeutic agents for Alzheimer’s disease” (PeerJ, 2018).
Values joined by “and” are separate entries in the source; they are usually repeats but may differ in a detail not shown here. Equal entries are not always repeated. “Also recorded” adds a separate entry of the source. Where two headings read alike, the source gives them in different places.

Experiments:
[1] = target: T1, acetylcholinesterase (from human erythrocytes) (Homo sapiens, UniProt P22303); assay: biochemical; parameters: LogIC50 (best-fit value): unit not given here
T1 construct: acetylcholinesterase (from human erythrocytes, purchased from Sigma-Aldrich, Seoul, Korea); purchased Sigma-Aldrich, Seoul, Korea; host or cells: human erythrocytes (natural source)
Protocol: The inhibitory activities of synthesized compounds were determined spectrophotometrically using acetylthiocholine iodide as substrate by following the method of ([Ellman et al., 1961]). Briefly, The assay solution consisted of 180 µL of 50 mM Tris-HCl buffer, pH 7.7, containing (0.1 M sodium chloride and 0.02 M magnesium chloride) and 20 µL of enzyme (AChE, EC 3.1.1.7), acetylcholinesterase (from human erythrocytes, purchased from Sigma-Aldrich, Seoul, Korea) solution (50 U per well); increasing concentrations of test compounds (10 µL) were added to the assay solution and pre incubated for 30 min at 4 °C. After that 5,5′ Dithiobis (2 nitrobenzoic acid) (0.3 mM, 20 µL) and acetylthiocholine iodide (1.8 mM, 20 µL) were added to the reaction mixture and incubated at 37 °C for 10 min, followed by the measurement of absorbance at 412 nm. For non-enzymatic reaction, the assays were carried out with a blank containing all components except acetylcholinesterase. The assay measurements were measured at 412 nm using a micro plate reader (OPTI Max Tunable; Molecular Devices, Sunnyvale, CA, USA) having a wave-length range from 340–850 nm; for 96 well plates. The reaction rates were compared and percent inhibition was calculated due to the presence of tested inhibitors. […] Each concentration was analyzed in three independent experiments run in triplicate. The IC50 values were calculated by nonlinear regression using GraphPad Prism 5.0.
The % of Inhibition of Acetylcholinesterase was calculated as following: Inhibition%=B−S∕B×100. Here, the B and S are the absorbance’s for the blank and samples.

[2] = target: T1, acetylcholinesterase (from human erythrocytes); assay: Determination of AChE inhibition kinetics (Lineweaver-Burk and secondary plots); format: biochemical
Protocol: The reaction mixture consisted of 180 µL of 50 mM Tris-HCl buffer (pH 7.7); 10 µL of 5c at the different concentrations (0.00, 0.075 and 0.15 µM) and 20 µL enzyme AChE (50 U per well). We added 20 µL of DTNB 0.3 mM and 20 µL of ATCI substrate at the different concentrations (4, 2, 1, 0.5, 0.25 and 0.125 mM) and mixed, pre-incubated time was same as acetylcholinesterase assay. We measured the absorbance at 412 nm up to 5 min. Lineweaver-Burk plot of the inverse of velocities vs. the inverse of substrate concentration was used for assessment of the type of inhibition AChE kinetically. […] The results (change in absorbance per sec) were processed by using SoftMaxPro software.

T1 sequence (P22303 32-617 isoform P22303-2 limits assumed): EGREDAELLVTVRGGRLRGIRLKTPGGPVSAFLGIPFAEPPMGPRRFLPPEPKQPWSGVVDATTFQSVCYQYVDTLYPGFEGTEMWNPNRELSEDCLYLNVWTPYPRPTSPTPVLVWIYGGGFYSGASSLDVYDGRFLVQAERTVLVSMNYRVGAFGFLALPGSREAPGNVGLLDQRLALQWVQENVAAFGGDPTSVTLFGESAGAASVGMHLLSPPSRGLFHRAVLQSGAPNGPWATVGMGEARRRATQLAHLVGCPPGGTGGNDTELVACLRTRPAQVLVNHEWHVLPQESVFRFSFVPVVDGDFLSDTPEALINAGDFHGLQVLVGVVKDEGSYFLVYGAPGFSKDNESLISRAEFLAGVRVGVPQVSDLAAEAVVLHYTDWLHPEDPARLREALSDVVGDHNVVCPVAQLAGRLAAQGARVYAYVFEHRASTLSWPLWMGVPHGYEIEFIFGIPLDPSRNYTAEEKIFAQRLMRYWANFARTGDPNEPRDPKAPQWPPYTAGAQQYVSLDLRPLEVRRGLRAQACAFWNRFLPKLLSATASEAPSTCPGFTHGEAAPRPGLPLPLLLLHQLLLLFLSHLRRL

Compound: COc1ccc(CCN(C(C)C)S(=O)(=O)c2ccc(C)cc2)cc1 [Compound 5c, N-(4-Methoxyphenethyl)-4-methyl-N-(2-propyl)benzensulfonamide]
- IC50 ([1]; each of three independent experiments, Raw Data of IC50 sheet, read-out: IC50, single experiment (converted)): 0.0424 µM and 0.108 µM
- IC50 ([1]; from human erythrocytes, mean ± SEM, read-out: Acetylcholinesterase IC50 ± SEM): 0.0751 ± 0.0189 µM
- LogIC50 (best-fit value) ([1]; log(inhibitor) vs. response fit, single run, IC50 Raw Data sheet): -1.584
- IC50 ([1]; log(inhibitor) vs. response fit, single run, unit inferred, IC50 Raw Data sheet, read-out: IC50 (best-fit value) (converted)): 0.075 µM
- IC50 ([1]; mean converted to uM, Raw Data of IC50 sheet, read-out: IC50): 0.0751 µM
- IC50 ([1]; mean of three experiments, Raw Data of IC50 sheet, read-out: IC50 (Mean) (converted)): 0.0751 µM
- type of inhibition ([2]; Lineweaver-Burk plots): competitively; also recorded: competitive
- Slope of Lineweaver-Burk line ([2]; compound 0.075 µM): 1360.1
- Vmax (1/V) ([2]; compound 0.075 µM, substrate axis value 0.25): 994.096
- Vmax (1/V) ([2]; compound 0.075 µM, substrate axis value 0.5): 1353.4
- Vmax (1/V) ([2]; compound 0.075 µM, substrate axis value 1): 2004.13
- Vmax (1/V) ([2]; compound 0.075 µM, substrate axis value 2): 3323.6
- Vmax (1/V) ([2]; compound 0.075 µM, substrate axis value 4): 5882.71
- Vmax (1/V) ([2]; compound 0.075 µM, substrate axis value 8): 11587.8
- Slope of Lineweaver-Burk line ([2]; compound 0.15 µM): 1563.63
- Vmax (1/V) ([2]; compound 0.15 µM, substrate axis value 0.25): 1136.29
- Vmax (1/V) ([2]; compound 0.15 µM, substrate axis value 0.5): 1514.8
- Vmax (1/V) ([2]; compound 0.15 µM, substrate axis value 1): 2227.02
- Vmax (1/V) ([2]; compound 0.15 µM, substrate axis value 2): 3687.56
- Vmax (1/V) ([2]; compound 0.15 µM, substrate axis value 4): 6343.71
- Vmax (1/V) ([2]; compound 0.15 µM, substrate axis value 8): 13371.1
- Ki ([2]; from Dixon / secondary plot of slope vs inhibitor concentration, read-out: inhibition constant Ki (EI dissociation constant)): 2500 nM
